Assay results taken from ChEMBL document CHEMBL1126614, “Substituted benzamides with conformationally restricted side chains. 5. Azabicyclo[x.y.z] derivatives as 5-HT4 receptor agonists and gastric motility stimulants” (1993).
≈ marks a conversion by molar mass, not a printed value.

What was measured:
[1] = target: T1, Serotonin 3 (5-HT3) receptor (Rattus norvegicus) (UniProt P35563+Q9JJ16); test: Tested for 5-HT 3 receptor antagonist potency by ability to inhibit the reflex bradycardia, the Bezold-Jarisch reflex in the rat; type: functional
[2] = target: 5-hydroxytryptamine receptor 4 (Cavia porcellus) (UniProt O70528); test: Relative ability to increase cholinergically mediated contractions in isolated ileum of guinea pig; type: functional, tissue-based
[3] = target: 5-hydroxytryptamine receptor 4 (Rattus norvegicus) (UniProt Q62758); test: Stimulatory activity of intragastric pressure was tested in the rat; type: functional
Canis familiaris = species: Canis familiaris; test: Tested against rhythmic contractile activity in a Heidenhain pouch dog preparation; type: functional, Canis lupus familiaris
[4] = target: T1, Serotonin 3 (5-HT3) receptor (Rattus norvegicus); test: Compound was tested for its 5-HT 3 receptor antagonist potency by their ability to inhibit the reflex bradycardia, the Bezold-Jarisch reflex in the rat; type: functional

Chain of 5-hydroxytryptamine receptor 4 (Rattus norvegicus) (Q62758 whole entry): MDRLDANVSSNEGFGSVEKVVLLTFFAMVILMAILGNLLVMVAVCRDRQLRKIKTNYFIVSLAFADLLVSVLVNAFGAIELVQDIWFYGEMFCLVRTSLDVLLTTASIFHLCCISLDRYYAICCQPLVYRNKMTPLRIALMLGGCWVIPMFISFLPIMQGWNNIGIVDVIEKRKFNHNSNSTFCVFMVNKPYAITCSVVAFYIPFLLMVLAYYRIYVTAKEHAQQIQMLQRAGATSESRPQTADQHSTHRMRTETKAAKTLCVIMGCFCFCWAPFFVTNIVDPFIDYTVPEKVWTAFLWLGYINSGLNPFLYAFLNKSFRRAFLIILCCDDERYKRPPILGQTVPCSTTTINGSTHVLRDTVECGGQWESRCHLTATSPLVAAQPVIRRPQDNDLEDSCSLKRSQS
Chain of 5-hydroxytryptamine receptor 4 (Cavia porcellus) (O70528 whole entry): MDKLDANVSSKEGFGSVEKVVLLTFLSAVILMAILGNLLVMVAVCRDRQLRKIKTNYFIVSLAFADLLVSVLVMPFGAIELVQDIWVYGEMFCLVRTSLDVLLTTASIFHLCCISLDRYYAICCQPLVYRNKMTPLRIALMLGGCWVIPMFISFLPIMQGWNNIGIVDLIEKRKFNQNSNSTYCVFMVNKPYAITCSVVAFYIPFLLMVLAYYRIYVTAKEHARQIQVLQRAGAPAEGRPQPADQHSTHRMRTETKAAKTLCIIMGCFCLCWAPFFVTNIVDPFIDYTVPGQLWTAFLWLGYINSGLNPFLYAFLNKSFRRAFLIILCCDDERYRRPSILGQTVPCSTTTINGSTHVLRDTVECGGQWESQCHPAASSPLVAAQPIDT

Row | ID50 [1] | EC20 [2] | ED50 [3] | ID50 [4] | SMILES | LAD (Canis familiaris)
1 | 0.0055 mg/kg | 0.002 µg/mL (≈ 0.00618 µM) | > 1 mg/kg |  | COc1cc(N)c(Cl)cc1C(=O)NC1CC2CCCN(C2)C1 (configuration not stated) | >0.1 mg/kg
2 |  |  |  | 0.086 mg/kg | COc1cc(N)c(Cl)cc1C(=O)NC12CCC(CC1)NC2 | 0.01 mg/kg
3 |  |  | 0.5 mg/kg |  | COc1cc(N)c(Cl)cc1C(=O)NC1CCN2CCSC1C2 (configuration not stated) | 0.01 mg/kg
4 |  | 0.056 µg/mL (≈ 0.159 µM) |  |  | COc1cc(N)c(Cl)cc1C(=O)NC1CCNC(C)C12CCC2C (configuration not stated) | 0.05 mg/kg
5 |  |  |  |  | COc1cc(N)c(Cl)cc1C(=O)N[C@H]1CCN2CCC[C@@H]1C2 [listing 1 of 2 here] | 0.01 mg/kg
6 |  | 0.15 µg/mL (≈ 0.444 µM) |  |  | COc1cc(N)c(Cl)cc1C(=O)NC1CC(C)NCC12CCC2 (configuration not stated) | 0.25 mg/kg
7 |  | 0.018 µg/mL (≈ 0.0533 µM) |  |  | COc1cc(N)c(Cl)cc1C(=O)NC1CCNCC12CCC2C (configuration not stated) | 0.05 mg/kg
8 | 0.0042 mg/kg | 0.022 µg/mL (≈ 0.0679 µM) |  |  | COc1cc(N)c(Cl)cc1C(=O)N[C@H]1CCN2CCC[C@@H]1C2 [listing 2 of 2 here] | 
9 |  |  |  |  | COc1cc(N)c(Cl)cc1C(=O)N[C@H]1CCN2CCC[C@@H]1C2 (relative stereo) [listing 1 of 2 here] | 0.05 mg/kg
10 | > 0.1 mg/kg | 0.087 µg/mL (≈ 0.269 µM) |  |  | COc1cc(N)c(Cl)cc1C(=O)N[C@H]1CCN2CCC[C@@H]1C2 (relative stereo) [listing 2 of 2 here] | 
11 |  |  |  |  | COc1cc(N)c(Cl)cc1C(=O)NC1CCN2CCOC1C2 (single isomer, unassigned; (+)) [listing 1 of 2 here] | 0.01 mg/kg
12 | 0.018 mg/kg |  | 0.1 mg/kg |  | COc1cc(N)c(Cl)cc1C(=O)NC1CCN2CCOC1C2 (single isomer, unassigned; (+)) [listing 2 of 2 here] | 
13 | 0.0039 mg/kg | 0.032 µg/mL (≈ 0.0988 µM) |  |  | COc1cc(N)c(Cl)cc1C(=O)NC1CCN2CCCC1C2 (single isomer, unassigned; (-)) | 
14 | 0.032 mg/kg |  | 0.1 mg/kg |  | COc1cc(N)c(Cl)cc1C(=O)NC1CCN2CCOC1C2 (single isomer, unassigned; (-)) | 
15 | 0.0033 mg/kg | 0.007 µg/mL (≈ 0.0216 µM) | 0.1 mg/kg |  | COc1cc(N)c(Cl)cc1C(=O)NC1CCN2CCCC1C2 (stereo in doubt) | 
16 | 0.019 mg/kg |  | 0.1 mg/kg |  | COc1cc(N)c(Cl)cc1C(=O)NC1CCN2CCOC1C2 (stereo in doubt) | 
17 |  |  |  |  | COc1cc(N)c(Cl)cc1C(=O)NC1CCN2CCCC1C2 (stereo in doubt) [RENZAPRIDE] | 0.01 mg/kg
18 | 0.03 mg/kg | 0.0004 µg/mL (≈ 0.00124 µM) | 0.1 mg/kg |  | COc1cc(N)c(Cl)cc1C(=O)NC1CCN2CCCC1C2 (stereo in doubt; 5d) | 
19 |  |  |  |  | COc1cc(N)c(Cl)cc1C(=O)NC1CCN2CCCC1C2 (stereo in doubt; 5d) [RENZAPRIDE] | 0.005 mg/kg
20 |  |  |  |  | COc1cc(N)c(Cl)cc1C(=O)NC1CN2CCCC1C2 (stereo in doubt; endo) [listing 1 of 2 here] | 0.01 mg/kg
21 |  |  |  |  | COc1cc(N)c(Cl)cc1C(=O)NC1C2CC3CCN(C2)CC1C3 (stereo in doubt; endo) [listing 1 of 2 here] | 0.01 mg/kg
22 | 0.0034 mg/kg |  |  |  | COc1cc(N)c(Cl)cc1C(=O)NC1C2CC3CCN(C2)CC1C3 (stereo in doubt; endo) [listing 2 of 2 here] | 
23 | 0.003 mg/kg | 0.017 µg/mL (≈ 0.0549 µM) | 0.06 mg/kg |  | COc1cc(N)c(Cl)cc1C(=O)NC1CN2CCCC1C2 (stereo in doubt; endo) [listing 2 of 2 here] | 
24 |  |  |  |  | COc1cc(N)c(Cl)cc1C(=O)NC1CN2CCCC1C2 (stereo in doubt; exo) [listing 1 of 2 here] | 0.05 mg/kg
25 |  |  |  |  | COc1cc(N)c(Cl)cc1C(=O)NC1C2CC3CCN(C2)CC1C3 (stereo in doubt; exo) [listing 1 of 2 here] | 0.05 mg/kg
26 | 0.059 mg/kg |  |  |  | COc1cc(N)c(Cl)cc1C(=O)NC1C2CC3CCN(C2)CC1C3 (stereo in doubt; exo) [listing 2 of 2 here] | 
27 | 0.045 mg/kg | 0.047 µg/mL (≈ 0.152 µM) |  |  | COc1cc(N)c(Cl)cc1C(=O)NC1CN2CCCC1C2 (stereo in doubt; exo) [listing 2 of 2 here] | 
28 | 0.5 mg/kg | 0.12 µg/mL (≈ 0.4 µM) | 1 mg/kg |  | CCN(CC)CCNC(=O)c1cc(Cl)c(N)cc1OC [METOCLOPRAMIDE] | 0.25 mg/kg
